Data as given in patent US20110172217A1, “RING-FUSED MORPHOLINE DERIVATIVE HAVING PI3K-INHIBITING ACTIVITY” (Shionogi & Co., Ltd., priority 2008, published 2011).

What was measured:
[1] = system: Salmonella typhimurium TA98 line, TA100 line; assay: Fat Test (mutagenicity in Salmonella typhimurium); assay type: cell-based; set-up: key: When the mutagenicity is negative, the compound is shown as (−); When positive, the compound is shown as (+); conditions: TA98 and TA100 lines, non-metabolism-activation and metabolism-activation conditions
Procedure: 20 μL of Salmonella enterica subsp. typhimurium (Salmonella typhimurium TA98 line, TA100 line) cryopreserved was inoculated to 10 mL of liquid nutrient medium (2.5% Oxoid nutrient broth No. 2) and then precultured at 37° C. for 10 hours with shaking. Regarding TA98 line, after 9 mL of a bacterial suspension was centrifuged (2000×g, 10 minutes) to remove the culture solution, the bacteria was suspended in 9 mL of Micro F buffer solution (K2HPO4: 3.5 g/L, KH2PO4: 1 g/L, (NH4)2SO4: 1 g/L, tri-sodium citric acid dihydrate: 0.25 g/L, MgSO4.7H2O: 0.1 g/L), and then added to 110 mL of Exposure media (Micro F buffer solution containing biotin: 8 μg/mL, histidine: 0.2 μg/mL, glucose: 8 mg/mL). Regarding TA 100 line, 120 mL of Exposure media was added to 3.16 mL of the bacterial suspension to prepare a test bacterial suspension. 12 μL of a solution of a test substance in DMSO (diluted eight times in a common ratio of 2 from the maximum dose of 50 mg/mL); 12 μL of DMSO as a negative control; 50 μg/mL 4-nitroquinoline-1-oxide solution in DMSO for TA98 line or 0.25 μg/mL 2-(2-furyl)-3-(5-nitro-2-furyl)acrylamide solution in DMSO as a positive control for TA 100 line in the case of a non-metabolism-activation condition; 12 μL of 40 μg/mL 2-aminoanthracene solution in DMSO for TA98 line or 20 μg/mL of 2-aminoanthracene solution in DMSO for TA100 line in the case of a metabolism-activation condition; were each mixed with 588 μL of the test bacterial suspension (in the case of a metabolism activation condition, a mixed solution of 498 μL of the test bacterial suspension and 90 μL S9 mix) and then cultured at 37° C. at 90 minutes with shaking. 460 μL of the bacterial suspension to which a test substance was exposed was mixed with 2300 μL of Indicator media (a Micro F buffer solution containing 8 μg/mL biotin, 0.2 μg/mL histidine, 8 mg/mL glucose, and 37.5 μg/mL bromocresol purple). […] Thus, in 48 wells per dose, the number of the bacteria-proliferation wells in which the color changed to yellow was counted, compared with a group of negative controls, and then evaluated. […]

[2] = target: T1, CYP3A4 (Homo sapiens, UniProt P08684); assay: CYP inhibition test, hydroxylation of terfenadine; assay type: in vitro ADME; conditions: pooled human liver microsome; one of 5 kinds
T1 construct: enzyme: pooled human liver microsome 0.2 mg protein/mL; from tissue; host or cells: pooled human liver microsomes
T1 sequence (P08684 whole entry): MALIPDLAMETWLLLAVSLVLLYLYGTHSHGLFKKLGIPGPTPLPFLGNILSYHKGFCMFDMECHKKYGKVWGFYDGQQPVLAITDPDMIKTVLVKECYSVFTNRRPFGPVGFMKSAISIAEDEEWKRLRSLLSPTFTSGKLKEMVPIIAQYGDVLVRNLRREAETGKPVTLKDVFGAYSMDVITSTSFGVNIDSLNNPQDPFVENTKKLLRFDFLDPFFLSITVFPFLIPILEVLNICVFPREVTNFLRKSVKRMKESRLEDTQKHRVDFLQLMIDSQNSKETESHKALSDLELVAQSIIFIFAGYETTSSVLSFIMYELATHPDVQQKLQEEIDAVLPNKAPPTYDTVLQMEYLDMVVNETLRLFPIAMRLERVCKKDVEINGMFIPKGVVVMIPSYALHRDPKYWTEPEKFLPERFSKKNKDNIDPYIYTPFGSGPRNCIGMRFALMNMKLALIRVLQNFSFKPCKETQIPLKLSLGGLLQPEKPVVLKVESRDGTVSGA
From the text: O-de-ethylation of 7-ethoxyresorufin (CYP1A2), methyl-hydroxylation of tolbutamide (CYP2C9), 4′-hydroxylation of mephenyloin (CYP2C19), O-demethylation of dextromethorphan (CYP2D6), and hydroxylation of terfenadine (CYP3A4), which are typical substrate for metabolic reactions of human main CYP5 molecular species (CYP1A2, 2C9, 2C19, 2D6, and 3A4), were adopted as indexes.
The reaction conditions are as follows: substrate: 0.5 μmol/L of ethoxyresorufin (CYP1A2), 100 μmol/L of tolbutamide (CYP2C9), 50 μmol/L of S-mephenyloin (CYP2C19), […] of dextromethorphan (CYP2D6), and 1 μmol/L of terfenadine (CYP3A4); reaction time; 15 minutes; reaction temperature: 37° C.; enzyme: pooled human liver microsome 0.2 mg protein/mL; test drug concentration: 1, 5, 10, and 20 μmol/L (4 points).
In a 96-well plate, as a reaction solution, five kinds of substrates, a human liver microsome, and a test drug were added to 50 mmol/L Hepes buffer solution in the aforementioned ratio. A coenzyme NADPH was added to start a metabolic reaction, which is an index. After reacting at 37° C. for 15 minutes, a solution of methanol/acetonitrile (1/1 (v/v)) was added to quench the reaction. After centrifugation at 3000 rpm for 15 minutes, resorufin (CYP1A2 metabolite) in the supernatant was quantitated with a fluorescence multilabel counter, and hydroxylated tolbutamide (CYP2C9 metabolite), 4′-hydroxylated mephenyloin (CYP2C19 metabolite), […], terfenadine in alcohol form (CYP3A4 metabolite) were quantitated with LC/MS/MS.
The case wherein only DMSO (a solvent which dissolved a drug) was added to a reaction system was defined as a control (100%). When a test drug solution was added, the remaining activity (%) at each concentration was calculated, and then IC50 was calculated with a concentration and an inhibition ratio by an inverse estimation using a logistic model.

| SMILES | mutagenicity [1] | IC50 [2] |
| --- | --- | --- |
| O=C(O)c1ccccc1Nc1ccc2c(n1)N(C(=O)Nc1ccccc1)CCO2 [Compound I-145] | (−) | – |
| O=C(O)COc1cccc(Nc2ccc3c(n2)N(C(=O)Nc2ccccc2)CCO3)c1 [Compound I-240] | – | > 20 µM |
